From US20110053900A1, “PROGESTERONE ANTAGONISTS SUCH AS CDB-4124 IN THE TREATMENT OF BREAST CANCER” (Repros Therapeutics inc, priority 2008, published 2011)

What was measured:
[1] = system: rabbit progesterone receptor (rbPR) and glucocorticoid receptor (rbGR); assay: Receptor-binding assays, ratio of relative binding affinities rbPR/rbGR; conditions: RBA = EC50 of standard/EC50 of test compound x 100
Experimental: (§1) Certain antiprogestins were tested in receptor-binding assays for their ability to bind rabbit progesterone receptor (rbPR) and glucocorticoid receptor (rbGR). Briefly, cytosol containing PR or GR were prepared in TEGMD buffer (10 mM Tris, pH 7.2, 1.5 mM EDTA, 0.2 mM sodium molybdate, 10% glycerol, 1 mM DTT) from uterus or thymus, respectively, of estradiol-primed immature rabbits. For PR binding, the cytosol was incubated with 6 nM 1,2-[^3H]progesterone (50.0 Ci/mmole) and competitors were added at concentrations from 2 to 100 nM. For binding to GR, the cytosol was incubated with 6 nM 6,7-[^3H]-dexamethasone (40 Ci/mmol) and test compounds were added at concentrations from 20 to 100 nM. After overnight incubation at 4° C., bound and unbound [^3H] steroids were separated by addition of dextran-coated charcoal and centrifugation at 2100×g for 15 min at 4
C. Supernatants containing the [3H]-steroid receptor complexes were decanted into vials containing 4 ml Optifluor (Packard Instrument Co.), vortexed, equilibrated in a liquid scintillation counter for 30 minutes and then counted for 2 minutes. The ECso (Effective Concentration) for each standard curve and each of the compound curves was determined by entering the counting data into a four parameter sigmoidal computer program (RiaSmart® Immunoassay Data Reduction Program, Packard Instrument Co., Meriden, Conn.). Relative binding affinity (RBA) for each compound was calculated using the following equation: EC50 of standard/EC50 of test compound×100. The standards for the PR and GR assays were unlabeled progesterone and dexamethasone, respectively. The results of these experiments are summarized in Table 1, as a ratio of the relative binding affinities of each compound for the rbPR and rbGR receptors (rbPR/rbGR).

[2] = target: T1, glucocorticoid receptor (rbGR) (Oryctolagus cuniculus, UniProt P59667); assay: Glucocorticoid receptor binding; design: species or system rabbit
T1 construct: cytosol containing PR or GR were prepared in TEGMD buffer; from tissue; host or cells: thymus of estradiol-primed immature rabbits (cytosol)
T1 sequence (P59667 1-772): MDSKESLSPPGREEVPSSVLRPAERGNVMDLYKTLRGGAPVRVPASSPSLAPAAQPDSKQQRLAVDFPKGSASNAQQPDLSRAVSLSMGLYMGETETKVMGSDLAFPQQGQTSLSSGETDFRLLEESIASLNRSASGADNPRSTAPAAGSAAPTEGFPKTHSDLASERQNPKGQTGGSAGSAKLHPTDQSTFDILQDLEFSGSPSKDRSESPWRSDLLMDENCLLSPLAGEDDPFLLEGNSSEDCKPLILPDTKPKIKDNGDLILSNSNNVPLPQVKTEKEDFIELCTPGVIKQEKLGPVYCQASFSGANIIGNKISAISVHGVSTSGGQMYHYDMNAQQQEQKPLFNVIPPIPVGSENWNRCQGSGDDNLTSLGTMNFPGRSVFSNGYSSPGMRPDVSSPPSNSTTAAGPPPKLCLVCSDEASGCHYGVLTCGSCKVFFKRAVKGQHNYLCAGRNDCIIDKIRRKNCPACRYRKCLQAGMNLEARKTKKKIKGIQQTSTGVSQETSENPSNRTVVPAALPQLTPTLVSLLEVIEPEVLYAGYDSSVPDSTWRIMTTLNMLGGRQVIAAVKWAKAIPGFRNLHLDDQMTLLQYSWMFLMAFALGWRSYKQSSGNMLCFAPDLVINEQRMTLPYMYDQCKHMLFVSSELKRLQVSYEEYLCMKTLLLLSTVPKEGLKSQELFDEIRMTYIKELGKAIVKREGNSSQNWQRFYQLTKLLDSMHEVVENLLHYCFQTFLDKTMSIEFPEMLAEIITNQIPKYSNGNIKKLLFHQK
Experimental: as §1, with “Briefly, cytosol containing PR or GR were prepared in TEGMD buffer (10 mM Tris, pH 7.2, 1.5 mM EDTA, 0.2 mM sodium molybdate, 10% glycerol, 1 mM DTT) from uterus or thymus, respectively, of estradiol-primed immature rabbits.” left out
C. Supernatants containing the [3H]-steroid receptor complexes were decanted into vials containing 4 ml Optifluor (Packard Instrument Co.), vortexed, equilibrated in a liquid scintillation counter for 30 minutes and then counted for 2 minutes. […] The standards for the PR and GR assays were unlabeled progesterone and dexamethasone, respectively.

rabbit uterus = assay: Anti-McGinty and anti-Clauberg assays; format: in vivo; conditions: average of anti-McGinty and anti-Clauberg results relative to CDB-2914 = 1.00
Excerpt: Also given in the Table are the relative biological activities of the same compounds in the rabbit uterus by the anti-McGinty and anti-Clauberg assays. Compound CDB-2914 (listed at the end of the Table) was used as the control or reference compound (rabbit Biological Activity=1.00) for these experiments because results of experiments using CDB-2914 have been published before (Hild-Petito et al., 1996; Passaro et al., 1997; Reel et al., 1998; Lamer et al., 2000). For the anti-McGinty test, immature female rabbits received a subcutaneous injection of 5 μg estradiol in 10% ethanol/sesame oil daily for 6 consecutive days. On day 7, animals underwent sterile abdominal surgery to ligate a 3-4 cm segment of both uterine horns. The test compound in appropriate solvent was injected intraluminally into the ligated segment of one uterine horn and vehicle alone into the other. A stimulating dose of progesterone (267 μg/day) was administered subcutaneously to each rabbit daily for the next three days to induce endometrial proliferation. All animals were sacrificed at day 10 for removal of the uterus where a segment central to the ligatures was removed and fixed in 10% neutral buffered formalin and submitted for histological processing. Five micron sections stained with hematoxylin and cosin were evaluated microscopically for the degree of endometrial glandular proliferation. The percent inhibition of endometrial proliferation for each rabbit was calculated and the mean of the group of five animals recorded. For the Anti-Clauberg test, immature female rabbits received a subcutaneous injection of 5 μg estradiol in 10% ethanol/sesame oil daily for 6 consecutive days. On day 7, animals received progesterone by subcutaneous injection (160 μg/day) and the experimental compound in appropriate vehicle orally or subcutaneously for five consecutive days. One group of rabbits received progesterone only. Twenty-four hours after the last dose, all animals were sacrificed for removal of the uterus which was cleaned of all fat and connective tissue, weighed to the nearest 0.2 mg and placed in 10% neutral buffered formalin for subsequent histological processing. Five micron sections stained with hematoxylin and eosin were evaluated microscopically for the degree of endometrial glandular proliferation. The percent inhibition of endometrial proliferation at each dose level of the test compound was derived by comparison with progesterone-stimulated animals alone. The data presented in Table 1 (rabbit Biol. Act.) reflects the average of the results obtained for each compound by the anti-McGinty and anti-Clauberg assays relative to CDB-2914.

## CC(=O)O[C@]1(C(C)=O)CC[C@H]2[C@@H]3CCC4=CC(=O)CCC4=C3[C@@H](c3ccc(N(C)C)cc3)C[C@@]21C [CDB-2914, 17α-acetoxy-11β-(4-N,N-dimethylaminophenyl)-19-norpregna-4,9-dien-3,20-dione, reference compound]
[1]
  rbPR/rbGR (ratio of the relative binding affinities for rbPR and rbGR): 1.07
[2]
  anti-glucocorticoid receptor activity / glucocorticoid receptor binding (in words): moderately active in glucocorticoid receptor binding
Rabbit uterus
  rabbit Biol. Act.: 1.00
